Measurements published in BigSolDB 2.1.

NC(N)=C([N+](=O)[O-])[N+](=O)[O-]
solubility (mole fraction)
Settings | 293.15 K | 298.15 K | 303.15 K | 308.15 K | 313.15 K | 318.15 K | 323.15 K | 328.15 K | 333.15 K
in 2-butanone | 0.00503 | 0.0056 | 0.00613 | 0.00659 | 0.00714 | 0.00782 | 0.00837 | 0.00899 | 0.00957
in DMSO | 0.172 | 0.177 | 0.181 | 0.184 | 0.189 | 0.193 | 0.197 | 0.201 | 0.206
in MIBK | 0.00278 | 0.00327 | 0.00358 | 0.00402 | 0.00428 | 0.00467 | 0.00512 | 0.00553 | 0.006
in cyclopentanone | 0.00715 | 0.00767 | 0.0083 | 0.0089 | 0.00948 | 0.0103 | 0.011 | 0.0119 | 0.0128
